Experimental data reported in patent publication US7115718B2, “Haptens, immunogens, antibodies and conjugates to 2-oxo-3-hydroxy-LSD” (Randox :abpratproes :o, oted, priority 2001, dated 2006).

How the values were obtained:
[1] = test system: antibodies generated to immunogen 4; settings: cited from earlier work
[2] = test system: antiserum raised to immunogen A (hapten A-BSA); assay: Competitive ELISA microtiter plate assay for 2-oxo-3-hydroxy-LSD, cross-reactivity with LSD and its metabolites; assay type: binding, sheep; settings: for % CR, percentage cross-reactivity based on specificity to 2-oxo-3-hydroxy LSD: % CR = IC50 2-oxo / IC50 LSD x 100; for % B/B0: B0 = absorbance at 0 ng/ml; for A450: absorbance at 450 nm, conjugate A (hapten A-HRP)
Experimental: An aqueous solution of the immunogen prepared in Example 5 was formulated with Freund's Complete Adjuvant (FCA) to form an emulsion consisting of 4 mg/ml inmmunogen in 50% (v/v) FCA. Three sheep were immunized with this emulsion (1° immunisation), 0.25 ml being subcutaneously -injected at each of four sites in the flank of each animal. The next immunisation (Boost 1) contained 2 mg/ml immunogen and subsequent immunizations (boosts 2 to 25) contained 1 mg/ml. All boosts were emulsified in 50% (v/v) Freund's Incomplete Adjuvant (FIA) and administered in the same manner as the 1° immunisation at monthly intervals for 1 year. Blood sampling took place 7 to 14 days after each boost. Each sample was processed to produce antiserum, which was further purified by caprylic acid and ammonium sulfate precipitation to yield an immunoglobulin G (IgG) fraction. The IgG fraction was evaluated by competitive ELISA microtitre plate assay, as described in Example 14 below.
The wells of an enhanced binding 96 well polystyrene ricrotiter plate were coated with the IgG fraction of the antiserum raised to immunogen A (Example 5) of the present invention, diluted in 10 mM Tris, pH8.5 (125 μl/well). The appropriate antibody coating dilution was determined using standard ELISA chequerboard techniques. The plate was incubated for 2 hours at 37° C., washed 4 times with Tris buffered saline containing Tween 20 (TBST) and tapped dry. Standard solutions of 2-oxo-3-hydroxy-LSD were prepared in TBST at 0, 10, 50, 100, 250, 500, 1000 and 2000 ng/ml and 50 μl of each was added to the appropriate wells (FIG. 4). The conjugate (detection reagent) of the present invention was diluted in Tris buffer (pH7.2) containing EDTA, D-mannitol, sucrose, thimerosal and BSA, the appropriate dilution being determined by standard ELISA chequerboard techniques, and 75 μl was added to the appropriate wells (FIG. 4). The plate was incubated at 37° C. for 2 hours. Excess unbound conjugate was removed by washing 6 times over a 10 minute period with TBST.
125 μl of tetramethylbenzidine (TMB) substrate solution was added to each well of the plate, which was then incubated for 15 to 20 minutes in the dark at room temperature. The reaction was terminated by addition of 125 μl 0.2M H2SO4 to each well. The absorbance was then measured at 450 nm using a microtiter plate reader.
Standard solutions of LSD and its metabolites were prepared in TBST at 0, 10.0, 50.0, 100.0, 250.0, 500.0, 1000 and 2000 ng/ml. Employing each series of standards in the present competitive ELISA, calibration curves were generated and these were used to determine the cross-reactivity of the immunoassays with LSD and its metabolites, cross-reactivity being calculated according to the following formula: % CR=IC502-oxo/IC50LSD×100 where % CR is the percentage cross-reactivity, IC502-oxo is the concentration of 2-oxo-3-hydroxy-LSD that causes 50% displacement of signal and IC50LSD is the concentration of LSD or LSD metabolite that causes 50% displacement of signal.

[3] = test system: antibodies generated to immunogen 8; settings: cited from earlier work
[4] = test system: antibodies of U.S. Pat. No. 6,207,396 B1; settings: antibodies specific to d-LSD; cited from earlier work
[5] = human urine; cited from earlier work
[6] = in vivo; cited from earlier work
[7] = in vivo; cited from earlier work; remark: listed apart in the source
[8] = test system: antibodies obtained in EP 1 148 339 A2; settings: when compared to 2-oxo-3-hydroxy-LSD; cited from earlier work

SMILES | cross-reactivity [1] [%] | specificity / cross-reactivity of the assay, in words [2] | % CR, percentage cross-reactivity based on specificity to 2-oxo-3-hydroxy LSD [2] [%] | % B/B0 ([2]; standard 10 ng/ml) [%] | A450 ([2]; standard 10 ng/ml) | % B/B0 ([2]; standard 50 ng/ml) [%] | A450 ([2]; standard 50 ng/ml) | % B/B0 ([2]; standard 100 ng/ml) [%] | A450 ([2]; standard 100 ng/ml) | % B/B0 ([2]; standard 250 ng/ml) [%] | A450 ([2]; standard 250 ng/ml) | % B/B0 ([2]; standard 500 ng/ml) [%] | A450 ([2]; standard 500 ng/ml) | % B/B0 ([2]; standard 1000 ng/ml) [%] | A450 ([2]; standard 1000 ng/ml) | % B/B0 ([2]; standard 2000 ng/ml) [%] | A450 ([2]; standard 2000 ng/ml) | cross-reactivity [3] [%] | cross-reactivity [4] [%] | cross-reactivity [8] | further results
CCN(CC)C(=O)[C@@H]1C=C2c3cccc4c3C(O)(C[C@H]2N(C)C1)C(=O)N4 (stereo partly drawn) [2-Oxo-3-Hydroxy-LSD, 2-oxo-3-hydroxy-LSD] | 50 | highly specific | 100 | 78.47 | 1.396 | 59.36 | 1.056 | 50.08 | 0.891 | 37.10 | 0.660 | 28.89 | 0.514 | 21.98 | 0.391 | 17.88 | 0.318 | < 20 | 1.82 |  | average concentration relative to that of LSD [5]: 20 times
CCN(CC)C(=O)[C@@H]1C=C2c3cccc4[nH]cc(c34)C[C@H]2N(C)C1 [LSD, Lysergic acid diethylamide] | 100 | very low levels of cross-reactivity | <5 | 99.28 | 1.792 | 98.45 | 1.777 | 98.34 | 1.775 | 96.40 | 1.740 | 91.58 | 1.653 | 87.09 | 1.572 | 80.50 | 1.453 | 100 |  | 74.9–84.4% | excreted unchanged in urine [6]: less than 1%; potency as hallucinogen relative to mescaline [7]: 4500–9275 times; potency as hallucinogen relative to psilocybin [7]: 10–150 times
CCN(CC)C(=O)[C@@H]1C=C2c3cccc4[nH]cc(c34)C[C@H]2NC1 [Nor LSD, nor-LSD] | 20 | very low levels of cross-reactivity | <5 | 99.0 | 1.772 | 98.7 | 1.767 | 98.5 | 1.763 | 97.1 | 1.738 | 94.2 | 1.686 | 91.5 | 1.638 | 86.7 | 1.552 | 40 |  | 1.8–4.6% | 
CCN(CC)C(=O)[C@H]1C=C2c3cccc4[nH]cc(c34)C[C@H]2N(C)C1 [d-iso-LSD] |  |  |  |  |  |  |  |  |  |  |  |  |  |  |  |  |  |  | 0.04 |  | hallucinogenic activity, in words [7]: inactive
